Data taken from article PMC3062741 (Behavioural brain research, 2011).

System: Male Sprague-Dawley rats
Assay: Locomotor activity
Assay type: in vivo, rat
Conditions: for Locomotor Activity Day 1, mean distance traveled: 60-min session

Compound: COC(=O)C(c1ccccc1)C1CCCCN1 (stereo not drawn) [MPD, Methylphenidate]
- time course of locomotor activity compared to saline-treated rats (Day 1, EC rats, MPD 3 mg/kg): significantly greater during the 25–60-min intervals
- time course of locomotor activity compared to saline-treated rats (Day 1, EC rats, MPD 10 mg/kg): significantly greater during the 20–60-min intervals
- time course of locomotor activity compared to saline-treated rats (Day 1, IC rats, MPD 3 mg/kg): significantly greater during the 30-, 50- and 60-min intervals
- time course of locomotor activity compared to saline-treated rats (Day 1, IC rats, MPD 10 mg/kg): significantly greater during the 15–60-min intervals
- time course of locomotor activity compared to saline-treated rats (Day 1, SC rats, MPD 3 mg/kg): more active than saline-treated SC rats during the 30–60-min time intervals
- time course of locomotor activity compared to saline-treated rats (Day 1, SC rats, MPD 10 mg/kg): more active than saline-treated SC rats during the 15–60-min time intervals
- time course of locomotor activity compared to saline-treated rats (Day 10, EC rats, MPD 3 mg/kg): only IC rats treated with 3 mg/kg of MPD displayed greater activity
- time course of locomotor activity compared to saline-treated rats (Day 10, EC rats, MPD 10 mg/kg): more active than the saline controls during each time interval
- time course of locomotor activity compared to saline-treated rats (Day 10, IC rats, MPD 3 mg/kg): significantly greater activity in IC rats relative to saline controls beginning at the 30-min time interval
- time course of locomotor activity compared to saline-treated rats (Day 10, IC rats, MPD 10 mg/kg): more active than the saline controls during each time interval except the 5-min interval in the IC group
- time course of locomotor activity compared to saline-treated rats (Day 10, SC rats, MPD 3 mg/kg): more active than saline-treated SC rats during the 10–60-min time intervals
- time course of locomotor activity compared to saline-treated rats (Day 10, SC rats, MPD 10 mg/kg): more active than saline-treated SC rats during the 10–60-min time intervals
- total locomotor activity across Days 1–10 compared with Day 1 (EC rats, MPD 3 mg/kg once daily): greater locomotor activity on Day 2 than on Day 1
- Locomotor Activity Day 10, mean distance traveled (EC rats, MPD 3 mg/kg s.c. once daily): 4438 cm
- Locomotor Activity Day 1, mean distance traveled (EC rats, MPD 3 mg/kg s.c.): 9482 cm
- total locomotor activity across Days 1–10 compared with Day 1 (EC rats, MPD 10 mg/kg once daily): greater locomotor activity on Days 4, 5 and 10 than on Day 1
- Locomotor Activity Day 10, mean distance traveled (EC rats, MPD 10 mg/kg s.c. once daily): 29196 cm
- Locomotor Activity Day 1, mean distance traveled (EC rats, MPD 10 mg/kg s.c.): 15665 cm
- total locomotor activity across Days 1–10 compared with Day 1 (IC rats, MPD 3 mg/kg once daily): greater locomotor activity on Days 2–9 than on Day 1
- Locomotor Activity Day 10, mean distance traveled (IC rats, MPD 3 mg/kg s.c. once daily): 13980 cm
- Locomotor Activity Day 1, mean distance traveled (IC rats, MPD 3 mg/kg s.c.): 9775 cm
- total locomotor activity across Days 1–10 compared with Day 1 (IC rats, MPD 10 mg/kg once daily): no significant main effect of Day
- Locomotor Activity Day 10, mean distance traveled (IC rats, MPD 10 mg/kg s.c. once daily): 28531 cm
- Locomotor Activity Day 1, mean distance traveled (IC rats, MPD 10 mg/kg s.c.): 20653 cm
- total locomotor activity across Days 1–10 compared with Day 1 (SC rats, MPD 3 mg/kg once daily): activity on Days 2–10 was greater than activity on Day 1
- Locomotor Activity Day 10, mean distance traveled (SC rats, MPD 3 mg/kg s.c. once daily): 23675 cm
- Locomotor Activity Day 1, mean distance traveled (SC rats, MPD 3 mg/kg s.c.): 15020 cm
- total locomotor activity across Days 1–10 compared with Day 1 (SC rats, MPD 10 mg/kg once daily): locomotor activity on Days 3, 5–7 and 10 was greater than that on Day 1
- Locomotor Activity Day 10, mean distance traveled (SC rats, MPD 10 mg/kg s.c. once daily): 31954 cm
- Locomotor Activity Day 1, mean distance traveled (SC rats, MPD 10 mg/kg s.c.): 22406 cm
